Legend:
female fertility = assay: Case reports of fertility enhancement in infertile/sub-fertile women; format: in vivo, human
Description: A person is […] and is classified as infertile since has tried to conceive for more than 12 months without the initiation of a state of pregnancy. They are not affected by polycystic ovary syndrome according to the Rotterdam criteria.
The patient, a person classified as being sub-fertile because they have been trying to conceive for more than 12 months unsuccessfully. They are not affected by metabolic disorders such as polycystic ovary syndrome according to the Rotterdam criteria.
A person is […] and is classified as a sub-fertile because they have been trying to conceive for more than 12 months without starting a state of pregnancy. It is not affected by metabolic disorders such as polycystic ovary syndrome according to the Rotterdam criteria.

[1] = Pharmacokinetics in humans of resveratrol formulations (plasma profile of total resveratrol); format: in vivo, human; conditions: voluntary subjects, 180 mg
Description: FIG. 1. Plasma profile of total resveratrol (free resveratrol+its metabolites) following the administration to voluntary subjects of a single dose of resveratrol of 180 mg […]® (circles), from pure resveratrol not supported (squares) and a simulation of the combination of resveratrol from […]® and pure resveratrol not supported in the ratio 1:2 (triangles).
The pharmacokinetics in humans of different types of resveratrol formulations. The administration of 180 mg Resveratrol supported on magnesium hydroxide ([…]®) in voluntary subjects leads to a transient increase in total concentration (free resveratrol+resveratrol metabolites) plasmatic resveratrol with Time at the peak concentration of 30 minutes from administration, followed by a decay of about 40% in the period up to 180 minutes from administration.

- Total plasma concentration of resveratrol compared with REVIFAST [1]: absolute lesser value
SMILES: Oc1ccc(C=Cc2cc(O)cc(O)c2)cc1 [pure resveratrol, resveratrol]
- Pregnancy outcome (female fertility; case n1, infertile, 100 mg per day for 3 months): without having a pregnancy
- Pregnancy outcome (female fertility; case n1, dosage doubled to 200 mg): has not changed its situation
